Data on 11 molecules can be found in patent publication US20040072146A1, “Mechanism of mitochondrial membrane permeabilization by HIV-1 Vpr, mimetics of Vpr and methods of screening active molecules having the ability to alter and/or prevent and/or mimic the interaction of Vpr with ANT” (priority 2000, published 2004).

The subject of one test is isolated mitochondria. Briefly: Electron microscopy of isolated mitochondria (matrix swelling). The format is biochemical. To be noted: pre-incubation of mitochondria. An excerpt: C. Ultrastructural effects of Vpr on isolated mitochondria.
The test system of test [1] is purified mitochondria. In words: ΔΨm dissipation in purified mitochondria (JC-1 flow cytometry). In kind it is biochemical. To be noted: 5 μM CsA, 50 μM BA, 0.8 μM Bcl-2, 2 μM PA10. As to the method: Numbers indicate the percentage of JC-1^high and JC-1^low mitochondria among ˜10^4 events.
E. Quantitation of the frequency of JC-1^low mitochondria (X±SD, n=5) after incubation with different Vpr-derived peptides.
(In general: Flow cytometry measures light scatter and fluorescence of single cells or particles in a stream.)

In a further test the target is T1, ANT-proteoliposomes (Rattus norvegicus, UniProt Q05962).
T1 construct: ANT is purified from rat heart and reconstituted in liposomes; from tissue; host or cells: rat heart (ANT)
T1 sequence (Q05962 1-298): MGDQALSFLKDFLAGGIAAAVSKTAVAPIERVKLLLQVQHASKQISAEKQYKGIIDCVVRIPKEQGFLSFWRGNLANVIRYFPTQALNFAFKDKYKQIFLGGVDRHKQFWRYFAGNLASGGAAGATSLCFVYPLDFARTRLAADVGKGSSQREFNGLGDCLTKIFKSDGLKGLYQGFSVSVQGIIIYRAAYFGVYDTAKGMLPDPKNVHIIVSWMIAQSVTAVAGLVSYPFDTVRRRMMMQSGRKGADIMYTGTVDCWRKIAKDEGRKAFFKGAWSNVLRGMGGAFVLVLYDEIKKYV
In words: FITC-labeled Vpr52-96 binding onto ANT-liposomes and plain liposomes. To be noted: BA 50 μM; Bcl-2 800 nM. As to the method:
A. Dose-response curve of FITC-labeled Vpr52-96 binding onto ANT-liposomes and plain liposomes.
B. Binding of FITC-Vpr52-96 (2 μM) to plain liposomes, ANT-proteoliposomes, in the presence or absence of BA (50 μM).

Test [2] has as its system purified mitochondria. In words: Inner versus outer mitochondrial membrane permeabilization (NADH oxidation, cytochrome c oxidation). To be noted: for prevention of Vpr-mediated inner MMP to NADH: preincubation 10 min, Bcl-2 0.8 μM, BA 10 μM. The format is biochemical. As to the method: A. Respirometry performed after addition of NADH and Vpr52-96 (1 μM). Numbers along the traces are nmol of O2 consumed min^−1 mg^−1 protein.
B. Kinetics of Vpr52-96 induced inner membrane permeabilization to NADH and outer membrane permeabilization to reduced cytochrome c. Oxygen consumption was determined in the presence of 2 mM NADH (full squares) as in A (traces C-D) and cytochrome c (15 μM) oxidation (open circles) was spectrofluorometrically measured, as described Rustin et al., 1994). The 100% value of cytochrome c oxidation was determined by addition of 2.5 mM laurylmaltoside.
Oxygen consumption of purified mitochondria was measured as in FIG. 5 after addition of succinate+CCCP or NADH, as indicated.

For test [3], the system named is purified mitochondria. In words: FITC-Vpr52-96 binding to purified mitochondria. To be noted: pre-incubation of the organelles. The procedure: Mitochondria were left unstained (insert in Co.) or exposed to the ΔΨm-insensitive mitochondrial dye MitoTracker® Green (75 nM), alone (MTG) or with 0.5 μM of FITC-Vpr52-96; green fluorescence), in combination with the ΔΨm-sensitive mitochondrial dye MitoTracker® Red (CMXRos; red Fluorescence) followed by cytofluorometric two-color analysis. Numbers indicate the percentage of mitochondria in each quadrant.
Mitochondria were incubated with the indicated inhibitors, and then exposed for 30 min at RT with 5 μM biotinylated Vpr52-96. Mitochondria were lysed either after incubation with biotinylated Vpr52-96 (upper panel) or lysed before (lower panel) with Tris/HCl as described in materials and methods. Biotinylated Vpr52-96 complexed with its mitochondrial ligands was retained on avidin-agarose and subjected to immunoblot detection of ANT.

The target in another test is T2, ANT (Rattus norvegicus, UniProt Q05962).
T2 construct: from tissue
T2 sequence (Q05962 whole entry, looked up): T1 sequence (Q05962 1-298)
Briefly: Single channel recordings in planar lipid bilayers. The format is biochemical. As to the method:
FIG. 3 presents electrophysiological properties of Vpr52-96 and ANT in planar lipid bilayers. Current fluctuations of Vpr52-96 (80 nM, +150 mV), Vpr52-96(0.4 nM, +100 mV), ANT (1 nM, +110 mV) and Vpr52-96+ANT (0.4:1 nM, +115 mV) and associated histograms (right) of conductance levels are shown.
Current fluctuations of Vpr52-96 (80 nM, +150 mV), Vpr52-96 (0.4 nM, +100 mV), ANT (1 nM, +110 mV) and Vpr52-96+ANT (0.4:1 nM, 115 mV) after incorporation into synthetic membranes. Single channel recordings were performed using the “Tip-Dip” technique. The recordings shown are representative for at least three independent determinations.
B. Statistical analysis of conductances obtained in A. Results were expressed as current distributions at different voltages. Conductances (γ; in picosiemens, pS) are calculated by division of current by voltage.

For a further test, the system named is COS cells. In words: ΔΨm dissipation in intact microinjected cells (JC-1). The format is cell-based. An excerpt: A. Vpr52-96-induced ΔΨm dissipation induced in intact cells.
A further test deals with biotinylated Vpr52-96 (Human immunodeficiency virus type 1 group M subtype B, UniProt P69726). The format is binding, HIV-1.
Test [4] concerns purified mitochondria. Briefly: Respirometry of purified mitochondria, respiratory control. To be noted: for effect on respiratory control (RC): 1 μM peptide, 10 min. The format is biochemical. As to the method: A. Oxygen consumption curves after addition of the indicated agents. Trace a: control mitochondria (no pretreatment). Trace b: mitochondria pretreated for 10 min with 1 μM Vpr52-96. Numbers along the traces are nmol of O2 consumed min^−1 mg^31 1 protein.
B. Respiratory control (RC) values calculated by dividing oxygen consumption in the presence of CCCP by that measured with oligomycin (determined as in A), 10 min after addition of 1 μM of Vpr-derived peptides (mean values of 3 determinations).

A further test deals with biotin-Vpr52-96 (HIV-1) (UniProt P12520). Briefly: SPR, Langmuir isotherm, peptide on biotinylated Vpr52-96.
Test [5] has as its target T3, adenine nucleotide translocator (ANT), native purified protein (rat), Q05962.
T3 chain: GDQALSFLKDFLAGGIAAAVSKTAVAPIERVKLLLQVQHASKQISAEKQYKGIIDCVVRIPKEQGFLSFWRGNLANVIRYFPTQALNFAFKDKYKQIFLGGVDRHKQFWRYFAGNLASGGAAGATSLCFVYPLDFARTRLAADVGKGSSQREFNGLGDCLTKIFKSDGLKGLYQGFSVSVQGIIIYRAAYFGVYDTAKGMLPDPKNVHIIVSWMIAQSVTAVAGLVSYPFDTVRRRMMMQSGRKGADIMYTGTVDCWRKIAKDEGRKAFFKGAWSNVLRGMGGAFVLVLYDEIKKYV
In words: cell-based or functional assay.

The target in test [6] is T4, adenine nucleotide translocator (ANT), native purified protein (rat, UniProt Q05962 2-298).
T4 construct: mature; also called adenine nucleotide translocase; ADP/ATP carrier
T4 sequence: T3 chain
Briefly: not stated (summary paragraph).

In test [7] the target is biotin-Vpr52-96 (HIV-1), P12520. Briefly: SPR, immobilised biotin-Vpr52-96, detergent-solubilized ANT as analyte. On the technique in general: SPR reads the build-up and loss of mass on a sensor chip optically.

“Also recorded” adds a separate entry of the source. Where a SMILES comes first, the peptide text is derived from it.

On to `CO[C@H](C/C=C\C=C\CC/C=C/C[C@H](C)/C=C/C(=C\C(=O)O)CC(=O)O)/C(C)=C\C=C(/C)C(=O)O` [bongkrekic acid, reference compound], for which, in the test with isolated mitochondria, the “inhibition of Vpr-induced matrix swelling” value is “inhibited”. The “inhibition of Vpr-induced ΔΨm loss in purified mitochondria” value with purified mitochondria [1] is reported as “inhibited”. Further, on ANT-proteoliposomes, the “effect on Vpr52-96 binding to ANT liposomes (membrane-associated ANT)” value was “inhibited”. In addition, the “prevention of Vpr-mediated inner MMP to NADH” value in the test with purified mitochondria [2] is reported as “prevented the Vpr-mediated inner MMP to NADH”. The “effect on binding of Vpr52-96 to purified mitochondria” value in the test on purified mitochondria [3] is reported as “partially reduced”.

On to Bcl-2: recombinant human Bcl-2 protein, for which the “inhibition of Vpr-induced matrix swelling” value in the test with isolated mitochondria is on record as “inhibited; also recorded: strongly reduced”. For the same molecule, the “inhibition of Vpr-induced ΔΨm loss in purified mitochondria” value in the test on purified mitochondria [1] was “inhibited; also recorded: strongly reduced”. The “effect on formation of Vpr52-96 induced channels in ANT-containing lipid bilayers” value with ANT (Vpr52-96+ANT+Bcl-2 0.4:1:1 nM) is listed as “abolished the formation of Vpr52-96 induced channels in ANT-containing lipid bilayers”. Also, the “prevention of Vpr effects on intact cells” value with COS cells (microinjected, Bcl-2 10 μM, PA10 2 μM) is “prevented”. Also, in the test with biotinylated Vpr52-96, the “binding to Vpr52-96” value is recorded as “did not bind Vpr52-96”. In addition, in the test with ANT-proteoliposomes, the “effect on Vpr52-96 binding to ANT liposomes (membrane-associated ANT)” value is “reduced Vpr52-96 binding”. Also, in the test with purified mitochondria [2], the “prevention of Vpr-mediated inner MMP to NADH” value was “prevented the Vpr-mediated inner MMP to NADH”. For the same molecule, in the test with purified mitochondria [3], the “effect on binding of Vpr52-96 to purified mitochondria” value is “failed to impair the binding of Vpr52-96 to purified mitochondria”.

In the case of `C[C@H](NC(=O)[C@H](Cc1ccccc1)NC(=O)[C@H](Cc1ccc(O)cc1)NC(=O)[C@H](CCCNC(=N)N)NC(=O)[C@H](Cc1c[nH]c2ccccc12)NC(=O)[C@H](Cc1ccccc1)NC(=O)[C@H](CCC(N)=O)NC(=O)[C@@H](NC(=O)[C@H](CCCNC(=N)N)NC(=O)[C@H](CCCCN)NC(=O)[C@@H](N)CC(=O)O)[C@@H](C)O)C(=O)NCC(=O)N[C@@H](CC(N)=O)C(=O)O` [ANT104-116] (H-DKRTQFWRYFAGN-OH; N-terminus and C-terminus assumed), the Kd at biotinylated Vpr52-96 (read-out: calculated KD of binding of ANT104-116 to biotinylated Vpr52-96, Langmuir isotherm) was 35 µM.

On to “Vpr: proapoptotic 96 amino acid HIV-1 regulatory protein, full length Vpr1-96 (DTWAGVEAIIRILQQLLFIHFRIGCRHSRIGVTRQRRARNGASRS)”, for which the “effect on respiratory control (RC)” value in the test on purified mitochondria [4] is on record as “also reduced the RC values”. Further, the “oxidation rate accompanying loss of RC” value in the test with purified mitochondria [4] (short-term incubation) is “not associated with a significant decrease of the oxidation rate”. The “ΔΨm loss in intact cells” value in the test on COS cells (extracellular addition) is on record as “induced a rapid ΔΨm loss, before nuclear condensation occurred”.

In the test with biotin-Vpr52-96 (HIV-1), ANT-2-derived peptide ANT104-116 registered a Kd of 35 µM.

Take “Bax: pro-apoptotic Bcl-2 family protein added to Vpr52-96-ANT channels”: the “mean conductance of Vpr52-96-ANT channels with Bax” value in the test with ANT (Vpr52-96+ANT+Bax 0.4:1:0.3 nM, +75 mV) turned out to be 245±2 S.

As to HFRIGCRHSRIG [Vpr71-82], the “effect on respiratory control (RC)” value in the test with purified mitochondria [4] was “also reduced the RC values”.

For the molecule `C=C(C)[C@H]1Cc2c(ccc3c2O[C@@H]2COc4cc(OC)c(OC)cc4[C@@H]2C3=O)O1` [rotenone, reference compound], in the test with purified mitochondria [2], the “sensitivity of Vpr-stimulated, NADH-dependent O2 consumption” value is “fully sensitive to rotenone”.

B1: Vpr52-96, P12520 52-96 (peptide)
peptide: DTWAGVEAIIRILQQLLFIHFRIGCRHSRIGVTRQRRARNGASRS
modifications: not checked
On to B1, for which, in test [5], the conductance of Vpr52-96-ANT channels in the presence of Bax turned out to be 245 pS; the conductance of channels formed by ANT and Vpr52-96 in planar lipid bilayers turned out to be 190 pS.

B2: HIV-1 Vpr (other)
chain: B1 peptide
notes: also called viral protein R
In test [6], B2 showed a Kd of 0.001 µM.

B3: adenine nucleotide translocator (ANT), native purified protein, Q05962 2-298 (protein)
chain: T3 chain
For the molecule B3, the Kd in test [7] turned out to be 0.0097 µM.

For orientation: Kd means a measure of binding affinity in units of concentration.
